What all share (format): cell-based
Conditions in all cases: Table 7; cAMP formation
In general terms: cAMP levels reflect the balance of adenylyl cyclase and phosphodiesterase activity.

Assay [1] concerns the target T1, human GLP-1 receptor (hGLP-1 R) (Homo sapiens, UniProt P43220).
T1 construct: expressed in transfected cells
The assay can be described thus: cAMP response of HEK-293 cells stably expressing human GLP-1 receptor (HTRF). In a few lines:
(§1)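 HEK-293 cells stably expressing the receptor were resuspended at 400000 cells/ml in HBSS/20 mM HEPES/0.1% BSA buffer with 2 mM IBMX. Cells were stimulated with compound for 30 min at room temperature. Intracellular cAMP was measured by HTRF.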
Background: Time-resolved FRET reads energy transfer from a long-lived donor to a nearby acceptor.

The target of assay [2] is T2, human GIP receptor (hGIP R) (Homo sapiens, UniProt P48546).
T2 construct: expressed in transfected cells
T2 sequence (P48546 22-466): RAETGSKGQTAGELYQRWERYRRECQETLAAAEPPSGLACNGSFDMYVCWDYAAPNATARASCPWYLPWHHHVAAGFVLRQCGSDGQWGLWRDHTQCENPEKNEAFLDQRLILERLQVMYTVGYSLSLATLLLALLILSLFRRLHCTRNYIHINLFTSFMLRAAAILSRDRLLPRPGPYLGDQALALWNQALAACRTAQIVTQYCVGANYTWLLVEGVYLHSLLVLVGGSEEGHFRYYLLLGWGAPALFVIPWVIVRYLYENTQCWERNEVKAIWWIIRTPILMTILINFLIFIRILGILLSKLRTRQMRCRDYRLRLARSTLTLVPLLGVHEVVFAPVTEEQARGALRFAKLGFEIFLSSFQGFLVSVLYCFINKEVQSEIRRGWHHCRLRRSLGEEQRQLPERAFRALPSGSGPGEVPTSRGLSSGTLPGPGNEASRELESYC
The assay can be described thus: cAMP response of HEK-293 cells stably expressing human GIP receptor (HTRF). Summed up: as §1

For assay [3], the target named is T3, human glucagon receptor (hGLUC R) (Homo sapiens, UniProt P47871).
T3 construct: expressed in transfected cells
T3 sequence (P47871 26-477): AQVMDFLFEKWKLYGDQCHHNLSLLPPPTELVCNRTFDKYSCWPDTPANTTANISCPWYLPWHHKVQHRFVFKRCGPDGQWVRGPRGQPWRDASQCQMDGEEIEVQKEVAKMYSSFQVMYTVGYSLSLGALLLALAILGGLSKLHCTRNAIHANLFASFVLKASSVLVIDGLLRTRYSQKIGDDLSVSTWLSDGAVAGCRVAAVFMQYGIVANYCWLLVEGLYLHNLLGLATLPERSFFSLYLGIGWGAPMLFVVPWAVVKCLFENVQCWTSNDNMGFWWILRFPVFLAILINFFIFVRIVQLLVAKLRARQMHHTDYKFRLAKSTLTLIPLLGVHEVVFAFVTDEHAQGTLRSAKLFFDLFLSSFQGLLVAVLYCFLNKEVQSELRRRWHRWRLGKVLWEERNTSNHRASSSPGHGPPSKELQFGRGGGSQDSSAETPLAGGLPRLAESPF
The assay can be described thus: cAMP response of HEK-293 cells stably expressing human glucagon receptor (HTRF). In a few lines:
as §1

This note sets out measurements from patent publication US20140213513A1 (Sanofi, priority 2012, published 2014).

*1 amine or outer side, *2 acyl side, *3 side chain or, on linkers, in order; H or OH if unused. Where a SMILES comes first, the peptide text is derived from it. Side-chain parts run from the residue outwards. [ ]: non-standard residue; d: D form. The star is where a group is joined. γGlu = O=C(O)[C@H](CCC(=O)[*:2])N[*:1]; Palmitoyl = CCCCCCCCCCCCCCCC(=O)*; Aib = CC(C)(N)C(=O)O

T1 sequence (P43220 24-463): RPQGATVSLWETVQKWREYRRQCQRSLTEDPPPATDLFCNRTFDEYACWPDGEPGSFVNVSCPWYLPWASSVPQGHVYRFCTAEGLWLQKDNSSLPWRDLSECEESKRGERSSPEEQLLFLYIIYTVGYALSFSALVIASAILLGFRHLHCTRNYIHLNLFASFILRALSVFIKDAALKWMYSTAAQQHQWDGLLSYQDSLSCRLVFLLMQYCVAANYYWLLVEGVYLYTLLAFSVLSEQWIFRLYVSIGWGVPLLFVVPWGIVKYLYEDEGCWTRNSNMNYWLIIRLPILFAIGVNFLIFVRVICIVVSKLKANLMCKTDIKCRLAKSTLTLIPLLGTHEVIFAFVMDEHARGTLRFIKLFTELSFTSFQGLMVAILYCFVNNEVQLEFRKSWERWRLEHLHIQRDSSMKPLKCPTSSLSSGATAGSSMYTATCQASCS

Consider `CCCCCCCCCCCCCCCC(=O)N[C@@H](CCC(=O)NCCCC[C@H](NC(=O)[C@H](CCC(N)=O)NC(=O)[C@@H](NC(=O)[C@H](CO)NC(=O)[C@H](CC(C)C)NC(=O)[C@H](CC(=O)O)NC(=O)[C@H](CO)NC(=O)[C@@H](NC(=O)[C@H](Cc1ccccc1)NC(=O)[C@@H](NC(=O)CNC(=O)[C@H](CCC(N)=O)NC(=O)C(C)(C)NC(=O)[C@@H](N)Cc1ccc(O)cc1)[C@@H](C)O)[C@@H](C)O)[C@@H](C)CC)C(=O)N[C@@H](CC(=O)O)C(=O)N[C@@H](CO)C(=O)N[C@@H](CCCNC(=N)N)C(=O)N[C@@H](C)C(=O)N[C@@H](C)C(=O)N[C@@H](CCC(N)=O)C(=O)N[C@@H](CC(=O)O)C(=O)N[C@@H](Cc1ccccc1)C(=O)N[C@H](C(=O)N[C@@H](CCC(=O)O)C(=O)N[C@@H](Cc1c[nH]c2ccccc12)C(=O)N[C@@H](CC(C)C)C(=O)N[C@@H](CCCCN)C(=O)N[C@@H](CCCCN)C(=O)NCC(=O)NCC(=O)N1CCC[C@H]1C(=O)N[C@@H](CO)C(=O)N[C@@H](CO)C(=O)NCC(=O)N[C@@H](C)C(=O)N1CCC[C@H]1C(=O)N1CCC[C@H]1C(=O)N1CCC[C@H]1C(=O)N[C@@H](CO)C(N)=O)[C@@H](C)CC)C(=O)O` [SEQ ID NO: 43, Y-Aib-Q-G-T-F-T-S-D-L-S-I-Q-K(yE-x53)-DSRAAQDFIEWLKKGGPSSGAPPPS-NH2] (H-Y[Aib]QGTFTSDLSIQK([γGlu-Palmitoyl])DSRAAQDFIEWLKKGGPSSGAPPPS-NH2), for which the EC50 (as a rule, the concentration at which the effect is half-maximal) is 0.007 nM in assay [1], 0.0482 nM in assay [2] and 0.114 nM in assay [3].

With `CCCCCCCCCCCCCCCC(=O)N[C@@H](CCC(=O)NCCCC[C@H](NC(=O)[C@H](CCC(N)=O)NC(=O)[C@@H](NC(=O)[C@H](CO)NC(=O)[C@H](CC(C)C)NC(=O)[C@H](CC(=O)O)NC(=O)[C@H](CO)NC(=O)[C@@H](NC(=O)[C@H](Cc1ccccc1)NC(=O)[C@@H](NC(=O)CNC(=O)[C@H](CCC(N)=O)NC(=O)C(C)(C)NC(=O)[C@@H](N)Cc1ccc(O)cc1)[C@@H](C)O)[C@@H](C)O)[C@@H](C)CC)C(=O)N[C@@H](CC(=O)O)C(=O)N[C@@H](CCCCN)C(=O)N[C@@H](CCCNC(=N)N)C(=O)N[C@@H](C)C(=O)N[C@@H](C)C(=O)N[C@@H](CCC(N)=O)C(=O)N[C@@H](CC(=O)O)C(=O)N[C@@H](Cc1ccccc1)C(=O)N[C@H](C(=O)N[C@@H](CCC(=O)O)C(=O)N[C@@H](Cc1c[nH]c2ccccc12)C(=O)N[C@@H](CC(C)C)C(=O)N[C@@H](CCCCN)C(=O)N[C@@H](CCCCN)C(=O)NCC(=O)NCC(=O)N1CCC[C@H]1C(=O)N[C@@H](CO)C(=O)N[C@@H](CO)C(=O)NCC(=O)N[C@@H](C)C(=O)N1CCC[C@H]1C(=O)N1CCC[C@H]1C(=O)N1CCC[C@H]1C(=O)N[C@@H](CO)C(N)=O)[C@@H](C)CC)C(=O)O` [SEQ ID NO: 44, Y-Aib-Q-G-T-F-T-S-D-L-S-I-Q-K(yE-x53)-DKRAAQDFIEWLKKGGPSSGAPPPS-NH2] (H-Y[Aib]QGTFTSDLSIQK([γGlu-Palmitoyl])DKRAAQDFIEWLKKGGPSSGAPPPS-NH2), the figures for the EC50 in assay [1], in assay [2] and in assay [3] were 0.0097 nM, 0.0255 nM and 0.0552 nM, respectively.

`CCCCCCCCCCCCCCCC(=O)N[C@@H](CCC(=O)NCCCC[C@H](NC(=O)[C@H](CCC(N)=O)NC(=O)[C@@H](NC(=O)[C@H](CO)NC(=O)[C@H](CC(C)C)NC(=O)[C@H](CC(=O)O)NC(=O)[C@H](CO)NC(=O)[C@@H](NC(=O)[C@H](Cc1ccccc1)NC(=O)[C@@H](NC(=O)CNC(=O)[C@H](CCC(N)=O)NC(=O)C(C)(C)NC(=O)[C@@H](N)Cc1ccc(O)cc1)[C@@H](C)O)[C@@H](C)O)[C@@H](C)CC)C(=O)N[C@@H](CC(=O)O)C(=O)N[C@@H](CO)C(=O)N[C@@H](CCC(=O)O)C(=O)N[C@@H](C)C(=O)N[C@@H](C)C(=O)N[C@@H](CCC(N)=O)C(=O)N[C@@H](CC(=O)O)C(=O)N[C@@H](Cc1ccccc1)C(=O)N[C@H](C(=O)N[C@@H](CCC(=O)O)C(=O)N[C@@H](Cc1c[nH]c2ccccc12)C(=O)N[C@@H](CC(C)C)C(=O)N[C@@H](CCCCN)C(=O)N[C@@H](C)C(=O)NCC(=O)NCC(=O)N1CCC[C@H]1C(=O)N[C@@H](CO)C(=O)N[C@@H](CO)C(=O)NCC(=O)N[C@@H](C)C(=O)N1CCC[C@H]1C(=O)N1CCC[C@H]1C(=O)N1CCC[C@H]1C(=O)N[C@@H](CO)C(N)=O)[C@@H](C)CC)C(=O)O` [SEQ ID NO: 48, Y-Aib-Q-G-T-F-T-S-D-L-S-I-Q-K(yE-x53)-DSEAAQDFIEWLKAGGPSSGAPPPS-NH2] (H-Y[Aib]QGTFTSDLSIQK([γGlu-Palmitoyl])DSEAAQDFIEWLKAGGPSSGAPPPS-NH2): the EC50 in assay [1] worked out at 0.0101 nM; in assay [2], 0.0158 nM; in assay [3], 0.478 nM.

With `CCCCCCCCCCCCCCCC(=O)N[C@@H](CCC(=O)NCCCC[C@H](NC(=O)[C@H](CCC(N)=O)NC(=O)[C@@H](NC(=O)[C@H](CO)NC(=O)[C@H](CC(C)C)NC(=O)[C@H](CC(=O)O)NC(=O)[C@H](CO)NC(=O)[C@@H](NC(=O)[C@H](Cc1ccccc1)NC(=O)[C@@H](NC(=O)CNC(=O)[C@H](CCC(N)=O)NC(=O)C(C)(C)NC(=O)[C@@H](N)Cc1ccc(O)cc1)[C@@H](C)O)[C@@H](C)O)[C@@H](C)CC)C(=O)N[C@@H](CC(=O)O)C(=O)N[C@@H](CO)C(=O)N[C@H](C(=O)N[C@@H](C)C(=O)N[C@@H](C)C(=O)N[C@@H](CCC(N)=O)C(=O)N[C@@H](CC(=O)O)C(=O)N[C@@H](Cc1ccccc1)C(=O)N[C@H](C(=O)N[C@@H](CCC(=O)O)C(=O)N[C@@H](Cc1c[nH]c2ccccc12)C(=O)N[C@@H](CC(C)C)C(=O)N[C@@H](CCCCN)C(=O)N[C@@H](C)C(=O)NCC(=O)NCC(=O)N1CCC[C@H]1C(=O)N[C@@H](CO)C(=O)N[C@@H](CO)C(=O)NCC(=O)N[C@@H](C)C(=O)N1CCC[C@H]1C(=O)N1CCC[C@H]1C(=O)N1CCC[C@H]1C(=O)N[C@@H](CO)C(N)=O)[C@@H](C)CC)[C@@H](C)CC)C(=O)O` [SEQ ID NO: 49, Y-Aib-Q-G-T-F-T-S-D-L-S-I-Q-K(yE-x53)-DSIAAQDFIEWLKAGGPSSGAPPPS-NH2] (H-Y[Aib]QGTFTSDLSIQK([γGlu-Palmitoyl])DSIAAQDFIEWLKAGGPSSGAPPPS-NH2), the EC50 in assay [1] worked out at 0.0172 nM; in assay [2] it was 0.0456 nM; in assay [3], 0.195 nM.
